Where two headings read alike, the source gives them in different places.
How the values were obtained:
HRE/Luc/HEK293 cells = test: HRE (Hypoxia Response Element) luciferase assay; type: cell-based, human; details: for fold induction at 10 µM / fold induction at 100 µM: Homo sapiens; for HRE expression: concentration of 10 µM; for HRE assay: increase in HRE expression levels by the test substance relative to the vehicle in HRE/Luc/HEK293 cells
In short: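 HRE-luciferase HEK293 cells in MEM/10% FBS pretreated with compound 6 h, then held under hypoxia (0.1% O2) 18 h; luminescence read after lysis. Scored as fold increase over vehicle, with twofold threshold at 100, 10 or 1 µM.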

male ICR mice [1] = test: Scopolamine-induced cognitive impairment model: passive avoidance test (PAT); type: in vivo; details: for percent recovery of memory in passive avoidance test (normal group = 100, scopolamine control = 0) at 50 mg/kg: Mus musculus, po, 168 h, read-out: in vivo(effect) PAT (%); for in vivo PAT: time staying in bright room (step-through latency), scopolamine 1 mg/kg i.p., compounds 50 mg/kg oral for 7 days, donepezil 5 mg/kg (avg.); for cognitive function recovery compared to normal animals, passive avoidance test (effect %): compounds 50 mg/kg, donepezil 5 mg/kg, orally for 7 days, scopolamine 1 mg/kg intraperitoneal
From the text: (§1) A memory loss rodent animal model induced by scopolamine intraperitoneal administration is used, and an evaluation method for memory uses a Y-maze test and a passive avoidance test (PAT). Scopolamine is a representative experimental model showing an impairment of cognitive function similar to AD patients by blocking neurotransmitters when administered to an animal as an antagonist of a muscarinic acetylcholine receptor, and as a cognitive function evaluation technique, a Y-maze test and a passive avoidance experiment, which are general and representative methods, were used, and in order to objectify the efficacy levels of the compounds, a group administered with donepezil (Aricept, Eisa) as a positive control material was separately provided to compare the efficacy levels of the compounds.
(§2) In order to evaluate cognitive function, 5-week-old male ICR mice were used, the compounds to be evaluated were prepared at a dose of 50 mg/kg/ml and repeatedly orally administered at a predetermined time for 7 days, and the positive control material was carried out at 5 mg/kg/ml. After the last administration, after 30 minutes of intraperitoneal administration of 1 mg/kg/2 ml of scopolamine, a Y-maze test and a passive avoidance test, which are cognitive function evaluations, were performed.
In addition, the passive avoidance test was conducted using an avoidance learning box (Jeondo B&P, Korea, Seoul), and the avoidance learning box is divided into a dark room and a bright room, and when a laboratory animal is put into a bright room, the subject goes beyond the dark room. At the moment, an electric shock of 0.5 mA is applied for 5 seconds, and when the next day experimental animal is put back into a bright room, an electric shock in a dark room is memorized and stay in a bright room. In this case, a step-through latency is measured to evaluate memory. The efficacy of the compounds of the present invention against the normal group and the control group in the Y-maze test and the passive avoidance test was described in the following Table 3 (Scopolamine-induced cognitive impairment model result).

male ICR mice [2] = test: Scopolamine-induced cognitive impairment model: Y-maze test; type: in vivo; details: for percent recovery of cognitive function (Y-maze) at 50 mg/kg: Mus musculus, po, 168 h; for in vivo Y-maze (%): spontaneous alternation, scopolamine 1 mg/kg i.p., compounds 50 mg/kg oral for 7 days, donepezil 5 mg/kg (avg.)
From the text: as §1, §2
The Y-maze test is a method for evaluating the ability to sequentially act as an experiment for measuring short-term memory. The measurement equipment is composed of three branches, each branch has a length of 42 cm, a width of 3 cm, and a height of 12 cm, and an angle at which three branches are folded is 120°. Experimental animals are put into each branch for 8 minutes, and the number of times of entering the branches to the tail of the experimental animal and the case of being sequentially received in each branch are scored (actual alternation). The alternation behavior is defined as entering not to overlap all three, and is calculated by the following equation. [formula]

[3] = HEK293, fold increase of HRE expression, hypoxic conditions (O2 0.1%) 18 hours, Table 2, read-out: HRE-increasing 10uM
[4] = HEK293, fold increase of HRE expression, hypoxic conditions (O2 0.1%) 18 hours, Table 2, read-out: HRE-increasing 100uM
[5] = read-out: in vivo(effect) Y-maze (%)
[6] = read-out: cognitive function recovery compared to normal animals, Y-maze experiment (effect %)

SMILES	fold induction at 10 µM (HRE/Luc/HEK293 cells; [3])	fold induction at 100 µM (HRE/Luc/HEK293 cells; [4])	percent recovery of memory in passive avoidance test (normal group = 100, scopolamine control = 0) at 50 mg/kg (male ICR mice [1]) [%]	in vivo PAT (male ICR mice [1]) [s]	percent recovery of cognitive function (Y-maze) at 50 mg/kg (male ICR mice [2]; [5]) [%]	in vivo Y-maze (%) (male ICR mice [2])	HRE expression (HRE/Luc/HEK293 cells)	HRE assay (HRE/Luc/HEK293 cells)	fold induction at 10 µM (HRE/Luc/HEK293 cells; HEK293, 18 h, Table 2 (Examples 37-74, 52), read-out: HKt-increasing 10uM)	fold induction at 100 µM (HRE/Luc/HEK293 cells; HEK293, 18 h, Table 2 (Examples 37-74, 52), read-out: HKt-increasing 100uM)	cognitive function recovery compared to normal animals, passive avoidance test (effect %) (male ICR mice [1]) [%]	percent recovery of cognitive function (Y-maze) at 50 mg/kg (male ICR mice [2]; [6]) [%]
O[C@@H]1[C@@H](O)[C@@H](Oc2ccc(Cc3ccsc3)cc2)OC[C@@H]1O [Example 23, (2R,3R,4S,5S)-2-(4-(thiophen-3-ylmethyl)phenoxy)tetrahydro-2H-pyran-3,4,5-triol]	1.6	2.7	22	87	41	59						
CC(C)c1ccc(Oc2ccc(O[C@H]3OC[C@H](O)[C@H](O)[C@H]3O)cc2)cc1 [Example 35, (2R,3R,4S,5S)-2-(4-(4-isopropylphenoxy)phenoxy)tetrahydro-2H-pyran-3,4,5-triol]	3.7	< 1	45	141	41	59	more than threefold					
O[C@@H]1[C@@H](O)[C@@H](Oc2ccc(Cc3ccc(Cl)cc3)cc2)OC[C@@H]1O [Example 14, (2R,3R,4S,5S)-2-(4-(4-chlorobenzyl)phenoxy)tetrahydro-2H-pyran-3,4,5-triol]	1.9	2.5	33	129	7	57		••				
O[C@@H]1[C@@H](O)[C@@H](Oc2ccc(Cc3ccc(F)cc3)cc2)OC[C@@H]1O [Example 13, (2R,3R,4S,5S)-2-(4-(4-fluorobenzyl)phenoxy)tetrahydro-2H-pyran-3,4,5-triol]	1.4	2.4	37	149	17	57		••				
CC(C)c1ccc(Oc2ccc(O[C@H]3OC[C@@H](O)[C@H](O)[C@H]3O)cc2)cc1 [Example 56, (2R,3R,4S,5R)-2-(4-(4-isopropylphenoxy)phenoxy)tetrahydro-2H-pyran-3,4,5-triol]			81	217.3	64	61.8			2.7	1.4	≥ 50	≥ 50
Cc1ccc(Cc2ccc(O[C@H]3OC[C@H](O)[C@H](O)[C@H]3O)cc2)cc1 [Example 2, (2R,3R,4S,5S)-2-(4-(4-methylbenzyl)phenoxy) tetrahydro-2H-pyran-3,4,5-triol]	2.5	3.2	25	134	51	63		•••				≥ 50
O[C@@H]1[C@@H](O)[C@@H](Oc2ccc(CC3CCCCC3)cc2)OC[C@@H]1O [Example 22, (2R,3R,4S,5S)-2-(4-(cyclohexylmethyl)phenoxy)tetrahydro-2H-pyran-3,4,5-triol]	2.5	2.8	36	145	56	65						≥ 50
COc1ccc2cc(Cc3ccc(O[C@H]4OC[C@H](O)[C@H](O)[C@H]4O)cc3)ccc2c1 [Example 20, ((2R,3R,4S,5S)-2-(4-(6-methoxynaphthalen-2-yl)methyl)phenoxy)tetrahydro-2H-pyran-3,4,5-triol]	1	1.1	38	142	61	69						≥ 50
CC(C)c1ccc(Cc2ccc(S[C@H]3OC[C@H](O)[C@H](O)C3O)cc2)cc1 (stereo partly drawn) [Example 27, (2R,4S,5S)-2-((4-(4-isopropylbenzyl)phenyl)thio) tetrahydro-2H-pyran-3,4,5-triol]	3.7	< 1	28	80	44	62	more than threefold					
COc1cccc(Cc2ccc(O[C@H]3OC[C@H](O)[C@H](O)[C@H]3O)cc2)c1 [Example 15, (2R,3R,4S,5S)-2-(4-(3-methoxybenzyl)phenoxy)tetrahydro-2H-pyran-3,4,5-triol]	1.1	2.2	30	142	66	66						≥ 50
CC(C)c1ccc(Cc2ccc(O[C@H]3OC[C@H](O)[C@H](O)[C@H]3O)cc2)cc1 [Example 7, (2R,3R,4S,5S)-2-(4-(4-isopropylbenzyl)phenoxy)tetrahydro-2H-pyran-3,4,5-triol]	3.5	< 1	73	179	57	65	more than threefold	•••			≥ 50	≥ 50
CC(C)(C)c1ccc(Oc2ccc(O[C@H]3OC[C@H](O)[C@H](O)[C@H]3O)cc2)cc1 [Example 36]	3.5	< 1	17	76	42	59	more than threefold					

— EP4810508A1, “ARABINOSE DERIVATIVE COMPOUND, AND COMPOSITION COMPRISING SAME FOR PREVENTING OR TREATING DEGENERATIVE BRAIN DISEASES” (Digmbio. Inc., priority 2023, dated 2025)
